Results: US12310975B2, “Modulators of BCL6 proteolysis and associated methods of use” (Arvinas Operations, Inc., priority 2019, dated 2025)

Columns and labels:
[1] = molecular target: T1, BCL6 (Homo sapiens (Human), UniProt P41182); assay: BCL6 TR-FRET assay (BCL6-Avitag-Biotin / BCoR-Cy5 peptide); format: binding; conditions: class symbols A-D; read-out: IC50 (nM)***
Method: Protein Synthesis. BCL6 protein was expressed by transforming Invitrogen One Shot cells with GS63525 pET24a-His-SUMO-TEV-BCLm-Avitag plasmid following manufacturer's instructions. In addition, biotin at a final concentration of 50 μM, and IPTG at a final concentration of 1 mM was added to the culture and incubated at room temperature shaking overnight.
Assay buffer A: 50 mM HEPES pH 7.5, 125 mM NaCl, 0.01% TritonX.
Assay buffer B (made fresh): buffer A+1 mM Glutathione (or 0.5 mM DTT).
Assay buffer C (made fresh): buffer B+0.03% BSA.
Black Proxy plates, 96 well.
15 μl final reaction volumes (BCoR-Cy5 100 nM, SA-Eu 2 nM, BCL6-avitag 2 nM).
[…] BCL6-Avitag-Biotin stock: made fresh by adding 2 μl of BCL6-Avitag-Biotin to 31.5 ml Buffer C.
1 mM BCoR-Cy5 peptide (LifeTein) stock in Dimethylformamide (DMF).
300 nM BCoR-Cy5 working stock: made fresh by adding 4.5 μl of the 1 mM BCoR-Cy5 peptide stock to 15 ml Buffer B.
10 μM Eu-Streptavidin (Lance Eu-W1024 Streptavidin, PerkinElmer) stock solution.
6 nM Eu-Streptavidin working stock: made fresh by adding 9 μl Eu-Streptavidin stock solution to 15 ml Buffer A.
Compounds were diluted to 10 mM. Twenty microliters of DMSO was aliquoted to each well of the microtiter plates. From the 10 mM compound stock, 8.7 ul was aliquoted to the 20 ul DMSO and 3-fold serial dilutions (12 pt 3-0.01 uM tritration plate, 96 well, 100% DMSO) performed. Five ul from the titration plate wells was aliquoted to 45 ul Buff C (Intermediate dilution plates, 10% DMSO).
Spot 1.5 μl compound titrations to 384-well plates in duplicate, and spot 3.5 μl [8.5 nM] BCL6-bio protein to each well. The plate was mix briefly, centrifuged, and incubated for 30 minutes at room temperature.
Mix 14 mls of BCoR-Cy5 [300 nM] and 14 mls [6 nM] Eu-Streptavidin. Spot 10 μl BCoR-Cy5/SA-Eu (1:1) mix to each well. The plates were incubated for 2 hours and then read on an Envision plate reader.

[2] = molecular target: T1, BCL6; assay: Immunofluorescence high content imaging of BCL6 degradation in T47D cells; format: cell-based; conditions: for Dmax: T47D, maximum, class symbols A-C; for DC50: class symbols A-D, read-out: EC50 (nM)*
Outline: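 T47D cells were treated 3 days at 37 °C with an 11-point 3-fold dilution series (top 0.1 or 1 μM), then fixed, permeabilized and immunostained for BCL6 with Alexa-488 secondary, CellMask and Hoechst. BCL6 signal was imaged at 10×, 4 fields/well, with top-hat smoothing.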

Row | Compound | IC50 [1] [nM] | Dmax [2] [%] | DC50 [2] [nM]
1 | CNC(=O)COc1cc2cc(Nc3nc(N4CCC(OCCOCCOCCOCCOCCOc5ccc6c(c5)CN(C5CCC(=O)NC5=O)C6=O)CC4)ncc3Cl)ccc2n(C)c1=O (stereo not drawn) [compound 62, 2-((6-((5-chloro-2-(4-((14-((2-(2,6-dioxopiperidin-3-yl)-1-oxoisoindolin-5-yl)oxy)-3,6,9,12-tetraoxatetradecyl)oxy)piperidin-1-yl)pyrimidin-4-yl)amino)-1-methyl-2-oxo-1,2-dihydroquinolin-3-yl)oxy)-N-methylacetamide] | 10 to 50 | ≥ 70 | > 100
2 | CNC(=O)COc1cc2cc(Nc3nc(N4CCC(CN5CCN(c6ccc7c(c6)C(=O)N(C6CCC(=O)NC6=O)C7=O)CC5)CC4)ncc3Cl)ccc2n(C)c1=O (stereo not drawn) [compound 104, 2-((6-((5-chloro-2-(4-((4-(2-(2,6-dioxopiperidin-3-yl)-1,3-dioxoisoindolin-5-yl)piperazin-1-yl)methyl)piperidin-1-yl)pyrimidin-4-yl)amino)-1-methyl-2-oxo-1,2-dihydroquinolin-3-yl)oxy)-N-methylacetamide] | 10 to 50 | 50 to 70 | 10 to 50
3 | CNC(=O)COc1cc2cc(Nc3nc(N4CCC(OCCN5CCN(Cc6ccc(C#Cc7ccc8c(c7)CN(C7CCC(=O)NC7=O)C8=O)cc6)CC5)CC4)ncc3Cl)ccc2n(C)c1=O (stereo not drawn) [compound 119, 2-((6-((5-chloro-2-(4-(2-(4-(4-((2-(2,6-dioxopiperidin-3-yl)-1-oxoisoindolin-5-yl)ethynyl)benzyl)piperazin-1-yl)ethoxy)piperidin-1-yl)pyrimidin-4-yl)amino)-1-methyl-2-oxo-1,2-dihydroquinolin-3-yl)oxy)-N-methylacetamide] | < 10 | < 50 | 10 to 50
4 | CNC(=O)COc1cc2cc(Nc3nc(N4CCCC(COc5ccc(C6CCN(CCC(O)c7ccc8c(c7)CN(C7CCC(=O)NC7=O)C8=O)CC6)cc5)C4)ncc3Cl)ccc2n(C)c1=O (stereo not drawn) [compound 127, 2-((6-((5-chloro-2-(3-((4-(1-(3-(2-(2,6-dioxopiperidin-3-yl)-1-oxoisoindolin-5-yl)-3-hydroxypropyl)piperidin-4-yl)phenoxy)methyl)piperidin-1-yl)pyrimidin-4-yl)amino)-1-methyl-2-oxo-1,2-dihydroquinolin-3-yl)oxy)-N-methylacetamide] | < 10 | < 50 | 10 to 50
5 | CC(=O)COc1cc2cc(Nc3nc(N4CCC(OCCN5CCN(c6ccc7c(c6)CN(C6CCC(=O)NC6=O)C7=O)CC5)CC4)ncc3Cl)ccc2n(C)c1=O (stereo not drawn) [compound 128, 3-(5-(4-(2-((1-(5-chloro-4-((1-methyl-2-oxo-3-(2-oxopropoxy)-1,2-dihydroquinolin-6-yl)amino)pyrimidin-2-yl)piperidin-4-yl)oxy)ethyl)piperazin-1-yl)-1-oxoisoindolin-2-yl)piperidine-2,6-dione] | < 10 | < 50 | < 10
6 | CC(=O)COc1cc2cc(Nc3nc(N4CCN(CCCN5CCN(c6ccc7c(c6)CN(C6CCC(=O)NC6=O)C7=O)CC5)CC4)ncc3Cl)ccc2n(C)c1=O (stereo not drawn) [compound 137, 3-(5-(4-(3-(4-(5-chloro-4-((1-methyl-2-oxo-3-(2-oxopropoxy)-1,2-dihydroquinolin-6-yl)amino)pyrimidin-2-yl)piperazin-1-yl)propyl)piperazin-1-yl)-1-oxoisoindolin-2-yl)piperidine-2,6-dione] | < 10 | < 50 | 10 to 50
7 | CNC(=O)COc1cc2cc(Nc3nc(N4CCC(N(C)C5CCN(CC6CCN(c7ccc(C#Cc8ccc9c(c8)CN(C8CCC(=O)NC8=O)C9=O)cc7)CC6)CC5)CC4)ncc3Cl)ccc2n(C)c1=O (stereo not drawn) [compound 138, 2-((6-((5-chloro-2-(4-((1-((1-(4-((2-(2,6-dioxopiperidin-3-yl)-1-oxoisoindolin-5-yl)ethynyl)phenyl)piperidin-4-yl)methyl)piperidin-4-yl) (methyl)amino)piperidin-1-yl)pyrimidin-4-yl)amino)-1-methyl-2-oxo-1,2-dihydroquinolin-3-yl)oxy)-N-methylacetamide] | < 10 | < 50 | 10 to 50
8 | CC(=O)COc1cc2cc(Nc3nc(N4CCN(CC5CCN(c6ccc7c(c6)C(=O)N(C6CCC(=O)NC6=O)C7=O)CC5)CC4)ncc3Cl)ccc2n(C)c1=O (stereo not drawn) [compound 148, 5-(4-((4-(5-chloro-4-((1-methyl-2-oxo-3-(2-oxopropoxy)-1,2-dihydroquinolin-6-yl)amino)pyrimidin-2-yl)piperazin-1-yl)methyl)piperidin-1-yl)-2-(2,6-dioxopiperidin-3-yl)isoindoline-1,3-dione] | < 10 | 50 to 70 | 10 to 50
9 | Cn1c(=O)n(CCC(C)(C)O)c2cc(Nc3nc(N4CCC(CN5CCN(c6ccc7c(c6)C(=O)N(C6CCC(=O)NC6=O)C7=O)CC5)CC4)ncc3Cl)ccc21 (stereo not drawn) [compound 149, 5-(4-((1-(5-chloro-4-((3-(3-hydroxy-3-methylbutyl)-1-methyl-2-oxo-2,3-dihydro-1H-benzo[d]imidazol-5-yl)amino)pyrimidin-2-yl)piperidin-4-yl)methyl)piperazin-1-yl)-2-(2,6-dioxopiperidin-3-yl)isoindoline-1,3-dione] | ≥ 100 | – | > 100

Other lines, results leading:

Row | IC50 [1] [nM] | Dmax [2] [%] | DC50 [2] [nM] | Compound
10 | ≥ 100 | – | > 100 | Cn1c(=O)ccc2cc(Nc3nc(N4CCC(CN5CCN(c6ccc7c(c6)C(=O)N(C6CCC(=O)NC6=O)C7=O)CC5)CC4)ncc3Cl)ccc21 (stereo not drawn) [compound 150, 5-(4-((1-(5-chloro-4-((1-methyl-2-oxo-1,2-dihydroquinolin-6-yl)amino)pyrimidin-2-yl)piperidin-4-yl)methyl)piperazin-1-yl)-2-(2,6-dioxopiperidin-3-yl)isoindoline-1,3-dione]
11 | < 10 | 50 to 70 | 10 to 50 | CNC(=O)COc1cc2cc(Nc3nc(N4CCC(CN5CCN(c6ccc7c(c6)CN(C6CCC(=O)NC6=O)C7=O)CC5)CC4)ncc3Cl)ccc2n(C)c1=O (stereo not drawn) [compound 151, 2-((6-((5-chloro-2-(4-((4-(2-(2,6-dioxopiperidin-3-yl)-1-oxoisoindolin-5-yl)piperazin-1-yl)methyl)piperidin-1-yl)pyrimidin-4-yl)amino)-1-methyl-2-oxo-1,2-dihydroquinolin-3-yl)oxy)-N-methylacetamide]
12 | 50 to 100 | 50 to 70 | 10 to 50 | CC(=O)COc1cc2cc(Nc3nc(N4CCC(CN5CCN(c6ccc7c(c6)C(=O)N(C6CCC(=O)NC6=O)C7=O)CC5)CC4)ncc3Cl)ccc2n(C)c1=O (stereo not drawn) [compound 152, 5-(4-((1-(5-chloro-4-((1-methyl-2-oxo-3-(2-oxopropoxy)-1,2-dihydroquinolin-6-yl)amino)pyrimidin-2-yl)piperidin-4-yl)methyl)piperazin-1-yl)-2-(2,6-dioxopiperidin-3-yl)isoindoline-1,3-dione]
13 | 50 to 100 | ≥ 70 | < 10 | CC(=O)COc1cc2cc(Nc3nc(N4CCC(C(=O)N5CCN(c6ccc7c(c6)C(=O)N(C6CCC(=O)NC6=O)C7=O)CC5)CC4)ncc3Cl)ccc2n(C)c1=O (stereo not drawn) [compound 153, 5-(4-(1-(5-chloro-4-((1-methyl-2-oxo-3-(2-oxopropoxy)-1,2-dihydroquinolin-6-yl)amino)pyrimidin-2-yl)piperidine-4-carbonyl)piperazin-1-yl)-2-(2,6-dioxopiperidin-3-yl)isoindoline-1,3-dione]
14 | 50 to 100 | < 50 | 10 to 50 | CC(=O)COc1cc2cc(Nc3nc(N4CCC(CN5CCC(Oc6ccc7c(c6)C(=O)N(C6CCC(=O)NC6=O)C7=O)CC5)C4)ncc3Cl)ccc2n(C)c1=O (stereo not drawn) [compound 154, 5-((1-((1-(5-chloro-4-((1-methyl-2-oxo-3-(2-oxopropoxy)-1,2-dihydroquinolin-6-yl)amino)pyrimidin-2-yl)pyrrolidin-3-yl)methyl)piperidin-4-yl)oxy)-2-(2,6-dioxopiperidin-3-yl)isoindoline-1,3-dione]
15 | ≥ 100 | – | > 100 | CNC(=O)CCc1cc2cc(Nc3nc(N4CCC(CN5CCN(c6ccc7c(c6)C(=O)N(C6CCC(=O)NC6=O)C7=O)CC5)CC4)ncc3Cl)ccc2n(C)c1=O (stereo not drawn) [compound 155, 3-(6-((5-chloro-2-(4-((4-(2-(2,6-dioxopiperidin-3-yl)-1,3-dioxoisoindolin-5-yl)piperazin-1-yl)methyl)piperidin-1-yl)pyrimidin-4-yl)amino)-1-methyl-2-oxo-1,2-dihydroquinolin-3-yl)-N-methylpropanamide]
